22 molecules from US5830868A, “Substituted DI- and tripeptide inhibitors of protein: farnesyl transferase” (Warner-Lambert Company, priority 1996, dated 1998) can be followed below.

Molecules are shown by their SMILES. Peptide text beside a SMILES is read from it. * marks the point of attachment. Hydrocinnamoyl = O=C(CCc1ccccc1)*; NHPhenethyl = c1ccc(CCN*)cc1; Cbz = O=C(OCc1ccccc1)*; Bn = c1ccc(C*)cc1

The experiment deals with T1, rat brain farnesyl protein transferase (PFT) (Rattus norvegicus, UniProt Q02293+Q04631).
T1 construct: 40-fold purified rat brain farnesyl protein transferase; from tissue; host or cells: rat brain
T1 sequence (Q02293 whole entry, one chain of several): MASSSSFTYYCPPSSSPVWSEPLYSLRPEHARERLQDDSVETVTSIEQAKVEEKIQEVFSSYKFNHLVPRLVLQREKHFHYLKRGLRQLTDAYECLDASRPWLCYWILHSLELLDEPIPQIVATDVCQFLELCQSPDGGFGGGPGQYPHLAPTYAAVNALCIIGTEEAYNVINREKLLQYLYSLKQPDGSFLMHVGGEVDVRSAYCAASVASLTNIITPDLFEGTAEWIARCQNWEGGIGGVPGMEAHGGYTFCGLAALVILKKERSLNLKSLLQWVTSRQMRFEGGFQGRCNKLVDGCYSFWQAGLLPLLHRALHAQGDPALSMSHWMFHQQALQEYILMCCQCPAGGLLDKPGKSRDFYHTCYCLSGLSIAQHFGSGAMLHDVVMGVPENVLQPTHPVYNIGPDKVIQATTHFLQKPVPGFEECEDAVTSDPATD
Put plainly: PFT inhibitory activity assay (radiolabeled farnesyl pyrophosphate, biotinyl peptide, streptavidin beads). Type of experiment: biochemical. To be noted: 40-fold purified rat brain enzyme; 0.12 μM [3H]FPP, 0.1 μM biotinyl-Ahe-Tyr-Lys-Cys-Val-Ile-Met; 37° C., 30 minutes; read-out: IC50 (μM) against PFT. As for the experimental part: The PFT inhibitory activity of compounds of Formula I was assayed in 30 mM potassium phosphate buffer, pH 7.4, containing 7 mM DTT, 1.2 mM MgCl2, 0.1 mM leupeptin, 0.1 mM pepstatin and 0.2 mM phenylmethylsulfonyl fluoride. Assays were performed in 96 well plates (Wallec) and employed solutions composed of varying concentrations of a compound of Formula I in 100% DMSO. Upon addition of both substrates, radiolabeled farnesyl pyrophosphate ([1-^3 H], specific activity 15--30 Ci/mmol, final concentration 0.12 μM) and (biotinyl)-Ahe-Tyr-Lys-Cys-Val-Ile-Met peptide (final concentration 0.1 μM), the enzyme reaction was started by addition of 40-fold purified rat brain farnesyl protein transferase. After incubation at 37° C. for 30 minutes, the reaction was terminated by diluting the reaction 2.5-fold with a stop buffer containing 1.5M magnesium acetate, 0.2M H3 PO4, 0.5% BSA, and strepavidin beads (Amersham) at a concentration of 1.3 mg/mL. After allowing the plate to settle for 30 minutes at room temperature, radioactivity was quantitated on a microBeta counter (model 1450, Wallec). Compounds of Formula I show IC50 values of 0.5 nM to 80 μM (see data table) in this assay and are thus valuable inhibitors of protein: farnesyl transferase enzyme which may be used in the medical treatment of tissue proliferative diseases, including cancer and restenosis.
Regarding `COC(=O)[C@H](COCc1ccccc1)NC(=O)[C@H](Cc1ccc(OCc2ccccc2)cc1)NC(=O)[C@H](Cc1c[nH]cn1)NC(=O)OCc1ccccc1` [Example 6, N-[N-[N-[(Phenylmethoxy)carbonyl]-L-histidyl]-O-(phenylmethyl)-L-tyrosyl]-O-(phenylmethyl)-L-serine, methyl ester] (Cbz-His-Tyr(Bn)-Ser(Bn)-OMe), the IC50 amounted to 0.42 µM.

Consider `O=C(Nc1ccc(Oc2ccccc2)cc1)NC(Cc1c[nH]cn1)C(=O)NC(Cc1ccc(OCc2ccccc2)cc1)C(=O)NCCc1ccccc1` [5 (46), (4-PhOPh)NHCO--D--His--Tyr(OBn)--CONHCH2 CH2 Ph], for which the IC50 came out at 1 µM.

Consider `COC(=O)[C@H](COCc1ccccc1)NC(=O)[C@H](Cc1ccc(OCc2ccccc2)cc1)NC(=O)[C@H](Cc1c[nH]cn1)NC(=O)CCc1ccccc1` [Example 18, N-[N-[N-(1-Oxo-3-phenylpropyl)-L-histidyl]-O-(phenylmethyl)-L-tyrosyl]-O-(phenylmethyl)-L-serine. methyl ester] (Hydrocinnamoyl-His-Tyr(Bn)-Ser(Bn)-OMe), for which the 50% inhibitory concentration (IC50) was 0.82 µM.

For `CCNC(=O)[C@H](COCc1ccccc1)NC(=O)[C@H](Cc1ccc(OCc2ccccc2)cc1)NC(=O)[C@H](Cc1c[nH]cn1)NC(=O)OCc1ccccc1` [Example 11, N-Ethyl-Nα -[N-[N-[(phenylmethoxy)carbonyl]-L-histidyl]-O-(phenylmethyl)-L-tyrosyl]-O-(phenylmethyl)-L-serinamide] (Cbz-His-Tyr(Bn)-Ser(Bn)-NHEt), the IC50 was found to be 0.17 µM.

On to `O=C(N[C@H](Cc1c[nH]cn1)C(=O)N[C@@H](Cc1ccc(OCc2ccccc2)cc1)C(=O)NCCCOc1ccccc1)OCc1ccccc1` [5 (23), BnOCO--D--His--Tyr(OBn)CONHCH2 CH2 CH2 OPh], for which the concentration for half-maximal inhibition (IC50) was 0.64 µM.

With `CCOc1ccc(NC(=O)NC(Cc2cnc[nH]2)C(=O)NC(Cc2ccc(OCc3ccccc3)cc2)C(=O)NCCCOc2ccccc2)cc1` (stereo not shown) [5 (63), (4-EtOPh)NHCO--His--Tyr(OBn)CONHCH2 CH2 CH2 OPh], the half-inhibitory concentration (IC50) was 1 µM.

Consider `O=C(NC1CCCCC1)N[C@H](Cc1c[nH]cn1)C(=O)N[C@@H](Cc1ccc(OCc2ccccc2)cc1)C(=O)NCc1ccccc1` [5 (35), c-hexyl-NHCO--D--His--Tyr(OBn)CONHCH2 Ph], for which the IC50 amounted to 66 µM.

As to `O=C(N[C@@H](Cc1c[nH]cn1)C(=O)N[C@@H](Cc1ccc(OCc2ccccc2)cc1)C(=O)NCCc1ccccc1)OCc1ccccc1` [Example 23, N-(2-Phenylethyl)-N60-[-N-[(phenylmethoxy)carbonyl]-L-histidyl]-O-(phenylmethyl)-L-tyrosinamide] (Cbz-His-Tyr(Bn)-NHPhenethyl), the half-inhibitory concentration (IC50) was 1.9 µM.

Turning to `O=C(Nc1cccc2ccccc12)N[C@H](Cc1c[nH]cn1)C(=O)N[C@@H](Cc1ccc(OCc2ccccc2)cc1)C(=O)NCc1ccccc1` [5 (60), 1-napthyl-NHCO--D--His--Tyr(OBn)CONHCH2 Ph], the IC50 worked out at 1.4 µM.

Consider `C[C@@](Cc1ccc(OCc2ccccc2)cc1)(NC(=O)[C@@H](Cc1c[nH]cn1)NC(=O)OCc1ccccc1)C(=O)NCCOCc1ccccc1` [Example 22], for which the IC50 is 0.37 µM.

Turning to `O=C(CCc1ccccc1)N[C@H](Cc1c[nH]cn1)C(=O)N[C@@H](Cc1ccc(OCc2ccccc2)cc1)C(=O)NCCOCc1ccccc1` [5 (36), PhCH2 CH2 CO--D--His--Tyr(OBn)CONHCH2 CH2 OBn], the half-maximal inhibitory concentration (IC50) was determined as 1.9 µM.

With `NC(=O)[C@H](COCc1ccccc1)NC(=O)[C@H](Cc1ccc(OCc2ccccc2)cc1)NC(=O)[C@H](Cc1c[nH]cn1)NC(=O)OCc1ccccc1` [Example 1, Nα -[N-[N-[(Phenylmethoxy)carbonyl]-L-histidyl]-O-(phenylmethyl)-L-tyrosyl]-O-(phenylmethyl)-L-serinamide] (Cbz-His-Tyr(Bn)-Ser(Bn)-NH2), the IC50 was determined as 4.4 µM.

In the case of `O=C(N[C@@H](Cc1c[nH]cn1)C(=O)N[C@@H](Cc1ccc(OCc2ccccc2)cc1)C(=O)N[C@@H](COCc1ccccc1)C(=O)O)OCc1ccccc1` [Example 7, N-[N-[N-[(Phenylmethoxy)carbonyl]-L-histidyl]-O-(phenylmethyl)-L-tyrosyl]-O-(phenylmethyl)-L-serine] (Cbz-His-Tyr(Bn)-Ser(Bn)-OH), the half-maximal inhibitory concentration (IC50) was 0.26 µM.

Regarding `O=C(NCc1ccccc1)N[C@H](Cc1c[nH]cn1)C(=O)N[C@@H](Cc1ccc(OCc2ccccc2)cc1)C(=O)NOCc1ccccc1` [5 (52), BnNHCO--D--His--Tyr(OBn)CONHOBn], the half-maximal inhibitory concentration (IC50) is 1.6 µM.

For the molecule `CN(CCOCc1ccccc1)C(=O)[C@H](Cc1ccc(OCc2ccccc2)cc1)NC(=O)[C@H](Cc1c[nH]cn1)NC(=O)OCc1ccccc1` [Example 29, Nα -[N-[(Phenylmethoxy)carbonyl]-L-histidyl]-O-(phenylmethyl)-N-methyl-N-[2-(phenylmethoxy)ethyl]-L-tyrosinamide], the IC50 was 3 µM.

As to `CN(C(=O)OCc1ccccc1)[C@H](Cc1c[nH]cn1)C(=O)N[C@@H](Cc1ccc(OCc2ccccc2)cc1)C(=O)NCCOCc1ccccc1` [Example 21, Nα -[N-Methyl-N[(phenylmethoxy)carbonyl]-D-histidyl]-N-[2-(phenylmethoxy)ethyl]-O-(phenylmethyl)-L-tyrosinamide], the IC50 came out at 0.31 µM.

Turning to `CCCCNC(=O)NC(Cc1cnc[nH]1)C(=O)NC(Cc1ccc(OCc2ccccc2)cc1)C(=O)NCCCCc1ccccc1` [5 (4), BuNHCO--D--His--Tyr(OBn)--CONH(CH2)4 Ph], the concentration for half-maximal inhibition (IC50) came to 7.3 µM.

As for `O=C(N[C@H](Cc1cnc[nH]1)C(=O)N[C@@H](Cc1ccc(OCc2ccccc2)cc1)C(=O)NCCc1ccccc1)N[C@@H]1C[C@H]1c1ccccc1` [5 (31), (t-2-Ph-c-propyl)-NHCO--D--His--Tyr(OBn)CONHCH2 CH2 Ph], the half-maximal inhibitory concentration (IC50) came out at 0.76 µM.

Consider `O=C(NC(Cc1c[nH]cn1)C(=O)NC(Cc1ccc(OCc2ccccc2)cc1)C(=O)NCCCCc1ccccc1)OCc1ccccc1` [5 (64), BnOCO--D--His--Tyr(OBn)CONHCH2 CH2 CH2 CH2 Ph], for which the half-inhibitory concentration (IC50) was 1.7 µM.

For the molecule `CC(C)NC(=O)N[C@H](Cc1c[nH]cn1)C(=O)N[C@@H](Cc1ccc(OCc2ccccc2)cc1)C(=O)NCCCCc1ccccc1` [5 (79), (CH3)2 CHNHCO--D--His--Tyr(OBn)CONHCH2 CH2 CH2 CH2 Ph], the IC50 was 3 µM.

Regarding `Cc1ccc(S(=O)(=O)N[C@@H](Cc2cnc[nH]2)C(=O)N[C@H](Cc2ccc(OCc3ccccc3)cc2)C(=O)N2CCN(Cc3ccccc3)CC2)cc1` (stereo in doubt) [Example 28, (S,R)-N-[1-(4-Benzyloxy-benzyl)-2-(4-benzyl-piperazin-1-yl)-2-oxo-ethyl]-3-(3H-imidazol-4-yl)-2-(toluene-4-sulfonylamino)-propionamide], the 50% inhibitory concentration (IC50) came to 11 µM.

Turning to `O=C(Nc1cccc2ccccc12)N[C@H](Cc1c[nH]cn1)C(=O)N[C@@H](Cc1ccc(OCc2ccccc2)cc1)C(=O)NCCCCc1ccccc1` [5 (59), 1-napthyl-NHCO--D--His--Tyr(OBn)CONHCH2 CH2 CH2 CH2 Ph], the half-inhibitory concentration (IC50) amounted to 20 µM.
